Source: PubChem BioAssay (NCI)
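48-hour exposure; five concentrations; linearly interpolated endpoints. GI50 marks 50% less growth. TGI: concentration producing complete growth inhibition.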

What was measured:
Assay in all cases: NCI tumour cell line growth inhibition, 48 h
[1] = test system: SW-620 colon
[2] = test system: RXF 393 renal
[3] = test system: ACHN renal
[4] = test system: SNB-75 CNS
[5] = test system: SR leukemia
[6] = test system: NCI-H23 lung
[7] = test system: OVCAR-4 ovarian
[8] = test system: SN12C renal
[9] = test system: 786-0 renal
[10] = test system: U251 CNS

Compound	GI50 [1]	TGI [1]	GI50 [2]	TGI [2]	GI50 [3]	TGI [3]	GI50 [4]	TGI [4]	GI50 [5]	TGI [5]	GI50 [6]	TGI [6]	GI50 [7]	TGI [7]	GI50 [8]	TGI [8]	GI50 [9]	TGI [9]	GI50 [10]	TGI [10]
CCCNC(=S)N/N=C(\C)c1ccccn1	0.0498 µM	> 100 µM	0.847 µM	6.55 µM	0.0394 µM	> 100 µM	1.5 µM	> 25.7 µM	0.0517 µM	4.37 µM	0.022 µM	> 100 µM	< 0.01 µM	0.0441 µM	0.268 µM	> 100 µM	0.959 µM	> 26 µM	0.0497 µM	> 100 µM
COC(=O)C1=C(c2ccc3c(c2)OCO3)O[C@H](c2ccc3c(c2)OCO3)[C@H]1COC(C)=O	–	> 100 µM	–	> 100 µM	–	> 100 µM	–	> 100 µM	–	> 100 µM	–	> 100 µM	–	> 100 µM	–	> 100 µM	–	> 100 µM	–	> 100 µM
CCC1(O)C(=O)OCc2c1cc1n(c2=O)Cc2cc3c(N)cccc3nc2-1 (centres undefined)	0.0531 µM	11.7 µM	–	0.348 µM	–	0.157 µM	–	0.251 µM	–	< 0.0114 µM	–	0.0806 µM	–	11.6 µM	–	0.595 µM	–	0.0893 µM	–	1.21 µM
CCOC(=O)[C@H]1Nc2ccc(C)cc2C2c3ccccc3CC21 (some centres undefined)	–	> 100 µM	–	> 100 µM	–	> 100 µM	–	> 100 µM	–	> 100 µM	–	> 100 µM	–	> 100 µM	–	> 100 µM	–	> 100 µM	–	> 100 µM
COc1ccc(-c2nc(-c3nc4ccc(C)cc4[nH]3)c3ccccn23)cc1	3.12 µM	> 100 µM	7.73 µM	> 100 µM	–	–	5.49 µM	> 100 µM	2.77 µM	> 100 µM	3.85 µM	> 100 µM	3.81 µM	> 100 µM	3.08 µM	> 100 µM	3.67 µM	> 100 µM	3.27 µM	> 100 µM
C[C@]12CC[C@@H]3c4ccc(O)cc4C[C@@H](CCCCCCCCCS(=O)CCCC(F)(F)C(F)(F)F)[C@H]3[C@@H]1CC[C@@H]2O (some centres undefined)	> 100 µM	> 100 µM	> 78.1 µM	> 100 µM	> 100 µM	> 100 µM	> 100 µM	> 100 µM	> 100 µM	> 100 µM	> 100 µM	> 100 µM	> 100 µM	> 100 µM	> 100 µM	> 100 µM	> 100 µM	> 100 µM	> 100 µM	> 100 µM
COc1ccc(-n2cc(-c3cc(OC)c(OC)c(OC)c3)[nH]c2=S)cc1OC	> 100 µM	> 100 µM	> 100 µM	> 100 µM	> 100 µM	> 100 µM	57 µM	> 100 µM	2.57 µM	8.76 µM	> 100 µM	> 100 µM	> 100 µM	> 100 µM	> 100 µM	> 100 µM	> 100 µM	> 100 µM	> 100 µM	> 100 µM
O=C(O)c1cc(N=Nc2ccc([As](=O)(O)O)cc2)ccc1O	–	> 100 µM	–	> 100 µM	–	> 100 µM	–	> 100 µM	–	> 100 µM	–	> 100 µM	–	> 100 µM	–	> 100 µM	–	> 100 µM	–	> 100 µM
COc1cc(Cn2c(-c3ccccc3)cc3c2-c2oncc2CC3)cc(OC)c1OC	0.42 µM	> 100 µM	1.36 µM	50.5 µM	0.961 µM	> 100 µM	0.453 µM	3.99 µM	0.42 µM	43.2 µM	2.57 µM	> 100 µM	3.12 µM	> 100 µM	5.84 µM	> 100 µM	1.52 µM	39.8 µM	0.947 µM	35.4 µM
Cn1cc(C2=C(c3cn(CCCN=C(N)N)c4ccccc34)C(=O)NC2=O)c2ccccc21	> 25 µM	> 25 µM	> 20 µM	> 25 µM	> 25 µM	> 25 µM	0.361 µM	> 25 µM	7.22 µM	> 25 µM	> 25 µM	> 25 µM	> 25 µM	> 25 µM	> 19.8 µM	> 25 µM	> 25 µM	> 25 µM	> 25 µM	> 25 µM
O=C(NC1CCCCCC1)C1C(=O)N(C2CCCCCC2)C(=O)/C1=N\O (centres undefined)	–	> 100 µM	–	48.2 µM	–	> 100 µM	–	91.9 µM	–	54 µM	–	93.1 µM	–	> 100 µM	–	> 100 µM	–	> 100 µM	–	34.9 µM
O=C(O)C1C(C(=O)O)C(C(=O)O)C1C(=O)O (centres undefined)	–	> 100 µM	–	> 100 µM	–	> 100 µM	–	> 100 µM	–	> 100 µM	–	> 100 µM	–	> 100 µM	–	> 100 µM	–	> 100 µM	–	> 100 µM
COc1ccc(C(=O)O)c(Cc2cccc3ccccc23)c1	–	> 100 µM	–	> 100 µM	–	> 100 µM	–	> 100 µM	–	> 100 µM	–	> 100 µM	–	> 100 µM	–	> 100 µM	–	> 100 µM	–	> 100 µM
COc1cc2c3c(n(CCCBr)c(=O)c2cc1OC)-c1ccc(NC(C)=O)cc1C3=O	0.963 µM	> 100 µM	13.3 µM	38.2 µM	3.07 µM	> 100 µM	12.1 µM	54 µM	0.574 µM	12.6 µM	11.8 µM	46.4 µM	32.3 µM	> 100 µM	13.9 µM	> 100 µM	5.4 µM	25.2 µM	1.17 µM	44.1 µM
NCCCNCCSSCCCCS(=O)O	–	> 100 µM	–	79.8 µM	–	> 100 µM	–	> 100 µM	–	29.3 µM	–	43.5 µM	–	28.2 µM	–	> 100 µM	–	> 100 µM	–	> 100 µM
